# Test results as given in patent US12509444B2, “Compounds and methods for CD73 modulation and indications therefor” (Plexxikon Inc., priority 2019, dated 2025).
# pIC50: −log10 of the molar value.
# Key:
# [1] = molecular target: T1, Human CD73 (amino acid residues 27-549) (Homo sapiens, UniProt P21589); experiment: CD73 enzymatic assay (luciferase-based indirect assay, CellTiter-Glo); type: biochemical; settings: 0.4 nM CD73, 150 μM AMP, 1 hour at room temperature
# T1 construct: Human CD73 (amino acid residues 27-549); His tag (N); made in house; host or cells: E. coli
# T1 sequence (P21589 27-549): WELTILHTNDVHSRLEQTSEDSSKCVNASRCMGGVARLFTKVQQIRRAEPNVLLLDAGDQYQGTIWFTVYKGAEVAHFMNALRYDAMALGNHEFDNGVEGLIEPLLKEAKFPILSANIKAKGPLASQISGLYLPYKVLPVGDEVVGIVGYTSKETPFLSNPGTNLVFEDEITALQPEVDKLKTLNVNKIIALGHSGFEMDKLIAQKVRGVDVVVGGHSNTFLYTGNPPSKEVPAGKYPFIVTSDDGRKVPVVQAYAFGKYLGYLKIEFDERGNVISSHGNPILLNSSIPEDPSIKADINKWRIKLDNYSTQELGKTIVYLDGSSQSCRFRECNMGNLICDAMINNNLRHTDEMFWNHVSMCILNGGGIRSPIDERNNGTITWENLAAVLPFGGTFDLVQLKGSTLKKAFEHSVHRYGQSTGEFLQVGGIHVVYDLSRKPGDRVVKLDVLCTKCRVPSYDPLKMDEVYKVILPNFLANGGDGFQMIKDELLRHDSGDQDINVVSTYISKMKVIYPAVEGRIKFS
# Outline: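 His-tagged human CD73 (27-549) from E. coli, 0.4 nM, with 150 μM AMP in 50 mM HEPES pH 7.4, 0.01% Tween 20; 1 h at room temperature. AMP remaining read by CellTiter-Glo 2.0 luminescence with 1 μM final ATP after 30 min. IC50 from nonlinear regression of % inhibition.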
# [2] = molecular target: T2, human CD73 (Homo sapiens, UniProt P21589); experiment: Inhibitor activity against CD73 in cell based assay (CD73 expressing CHO-K1 cells); settings: CHO-K1 cells expressing human CD73, 150 μM AMP, 4 hours of incubation; read-out: CHO-K1 CELL VARIANT: CD73 IC50
# T2 construct: expressed in transfected cells
# T2 sequence (P21589 27-549): T1 sequence (P21589 27-549)
# Outline: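 Stably transfected CHO-K1 cells expressing human CD73 (1×10^4/well) incubated 4 h with compound (8-point 1:3 titration, top 10 μM final, 0.2% DMSO) and 150 μM AMP. Residual AMP in supernatant measured by CellTiter-Glo luminescence with 1 μM ATP after 30 min at room temperature; IC50 by nonlinear regression of percent inhibition vs high/low controls.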
pIC50 [1],pIC50 [2],Structure (SMILES)
5.00 to 9.00,5.00 to 9.00,"C[C@@H]1CCCC[C@H]1NC(=O)O[C@@H]1CCN(c2cn[nH]c(=O)c2Cl)C1 [P-0335, (R)-1-(5-chloro-6-oxo-1,6-dihydropyridazin-4-yl)pyrrolidin-3-yl ((1R,2R)-2-methylcyclohexyl)carbamate]"
5.00 to 9.00,4.00 to 5.00,"C[C@H]1C[C@@H](OC(=O)NC2CCC(F)(F)CC2)CN1c1cn[nH]c(=O)c1Cl [P-0336, (3R,5S)-1-(5-chloro-6-oxo-1,6-dihydropyridazin-4-yl)-5-methylpyrrolidin-3-yl (4,4-difluorocyclohexyl)carbamate]"
5.00 to 9.00,4.00 to 5.00,"C[C@@H]1C[C@@H](OC(=O)NC2CCC(F)(F)CC2)CN1c1cn[nH]c(=O)c1Cl [P-0337, (3R,5R)-1-(5-chloro-6-oxo-1,6-dihydropyridazin-4-yl)-5-methylpyrrolidin-3-yl (4,4-difluorocyclohexyl)carbamate]"
5.00 to 9.00,5.00 to 9.00,"O=C(NC1CC(CO)(CCl)C1)O[C@@H]1CCN(c2cn[nH]c(=O)c2Cl)C1 (stereo partly drawn) [P-0338, (R)-1-(5-chloro-6-oxo-1,6-dihydropyridazin-4-yl)pyrrolidin-3-yl (3-(chloromethyl)-3-(hydroxymethyl)cyclobutyl) carbamate]"
5.00 to 9.00,5.00 to 9.00,"O=C(N[C@H]1CC[C@@H](F)CC1)O[C@@H]1CCN(c2cn[nH]c(=O)c2Cl)C1 [P-0339, (R)-1-(5-chloro-6-oxo-1,6-dihydropyridazin-4-yl)pyrrolidin-3-yl ((1s,4S)-4-fluorocyclohexyl)carbamate]"
5.00 to 9.00,5.00 to 9.00,"CC(=O)N1CC[C@H](NC(=O)O[C@@H]2CCN(c3cn[nH]c(=O)c3Cl)C2)C1 [P-0340, (R)-1-(5-chloro-6-oxo-1,6-dihydropyridazin-4-yl)pyrrolidin-3-yl ((S)-1-acetylpyrrolidin-3-yl)carbamate]"
5.00 to 9.00,4.00 to 5.00,"CS(=O)(=O)N1CC[C@H](NC(=O)O[C@@H]2CCN(c3cn[nH]c(=O)c3Cl)C2)C1 [P-0341, (R)-1-(5-chloro-6-oxo-1,6-dihydropyridazin-4-yl)pyrrolidin-3-yl ((S)-1-(methylsulfonyl)pyrrolidin-3-yl)carbamate]"
5.00 to 9.00,4.00 to 5.00,"O=C(N[C@H]1CCN(C(=O)c2ccccc2)C1)O[C@@H]1CCN(c2cn[nH]c(=O)c2Cl)C1 [P-0342, (R)-1-(5-chloro-6-oxo-1,6-dihydropyridazin-4-yl)pyrrolidin-3-yl ((S)-1-benzoylpyrrolidin-3-yl)carbamate]"
5.00 to 9.00,4.00 to 5.00,"O=C(N[C@H]1CCN(C(=O)NC2CCCCC2)C1)O[C@@H]1CCN(c2cn[nH]c(=O)c2Cl)C1 [P-0343, (R)-1-(5-chloro-6-oxo-1,6-dihydropyridazin-4-yl)pyrrolidin-3-yl ((S)-1-(cyclohexylcarbamoyl)pyrrolidin-3-yl)carbamate]"
5.00 to 9.00,5.00 to 9.00,"Cc1ccc(C(=O)N[C@H]2CC[C@H](NC(=O)O[C@@H]3CCN(c4cn[nH]c(=O)c4Cl)C3)CC2)cc1 [P-0344, (R)-1-(5-chloro-6-oxo-1,6-dihydropyridazin-4-yl)pyrrolidin-3-yl ((1r,4R)-4-(4-methylbenzamido)cyclohexyl) carbamate]"
5.00 to 9.00,5.00 to 9.00,"O=C(Nc1ccc(C(F)(F)F)cc1)N[C@H]1CC[C@H](NC(=O)O[C@@H]2CCN(c3cn[nH]c(=O)c3Cl)C2)CC1 [P-0345, (R)-1-(5-chloro-6-oxo-1,6-dihydropyridazin-4-yl)pyrrolidin-3-yl ((1r,4R)-4-(3-(4-(trifluoromethyl)phenyl)ureido)cyclohexyl)carbamate]"
5.00 to 9.00,5.00 to 9.00,"O=C(Nc1cccc(C(=O)O)c1)N[C@H]1CC[C@H](NC(=O)O[C@@H]2CCN(c3cn[nH]c(=O)c3Cl)C2)CC1 [P-0346, 3-(3-((1R,4r)-4-(((((R)-1-(5-chloro-6-oxo-1,6-dihydropyridazin-4-yl)pyrrolidin-3-yl)oxy)carbonyl)amino)cyclohexyl)ureido)benzoic acid]"
5.00 to 9.00,5.00 to 9.00,"O=C(Nc1ccc(C(=O)O)cc1)N[C@H]1CC[C@H](NC(=O)O[C@@H]2CCN(c3cn[nH]c(=O)c3Cl)C2)CC1 [P-0347, 4-(3-((1R,4r)-4-(((((R)-1-(5-chloro-6-oxo-1,6-dihydropyridazin-4-yl)pyrrolidin-3-yl)oxy)carbonyl)amino)cyclohexyl)ureido)benzoic acid]"
5.00 to 9.00,4.00 to 5.00,"COc1c(N2CC[C@@H](OC(=O)NC3CCC(F)(F)CC3)C2)cn[nH]c1=O [P-0348, (R)-1-(5-methoxy-6-oxo-1,6-dihydropyridazin-4-yl)pyrrolidin-3-yl (4,4-difluorocyclohexyl)carbamate]"
5.00 to 9.00,5.00 to 9.00,"O=C(NC12CCC(CC1)C2)O[C@@H]1CCN(c2cn[nH]c(=O)c2Cl)C1 [P-0349, (R)-1-(5-chloro-6-oxo-1,6-dihydropyridazin-4-yl)pyrrolidin-3-yl bicyclo[2.2.1]heptan-1-ylcarbamate]"
5.00 to 9.00,5.00 to 9.00,"CC1(C)CCCC1NC(=O)O[C@@H]1CCN(c2cn[nH]c(=O)c2Cl)C1 (stereo partly drawn) [P-0350, (R)-1-(5-chloro-6-oxo-1,6-dihydropyridazin-4-yl)pyrrolidin-3-yl (2,2-dimethylcyclopentyl)carbamate]"
5.00 to 9.00,5.00 to 9.00,"CC1(C)CC(NC(=O)O[C@@H]2CCN(c3cn[nH]c(=O)c3Cl)C2)C1 [P-0351, (R)-1-(5-chloro-6-oxo-1,6-dihydropyridazin-4-yl)pyrrolidin-3-yl (3,3-dimethylcyclobutyl)carbamate]"
5.00 to 9.00,5.00 to 9.00,"O=C(N[C@H]1CC[C@@H](Nc2ncccn2)CC1)O[C@@H]1CCN(c2cn[nH]c(=O)c2Cl)C1 [P-0352, (R)-1-(5-chloro-6-oxo-1,6-dihydropyridazin-4-yl)pyrrolidin-3-yl ((1s,4s)-4-(pyrimidin-2-ylamino)cyclohexyl)carbamate]"
5.00 to 9.00,5.00 to 9.00,"CC(=O)N1CC[C@@H](NC(=O)O[C@@H]2CCN(c3cn[nH]c(=O)c3Cl)C2)C1 [P-0353, (R)-1-(5-chloro-6-oxo-1,6-dihydropyridazin-4-yl)pyrrolidin-3-yl ((R)-1-acetylpyrrolidin-3-yl)carbamate]"
5.00 to 9.00,5.00 to 9.00,"O=C(N[C@@H]1CCN(C(=O)NC2CCCCC2)C1)O[C@@H]1CCN(c2cn[nH]c(=O)c2Cl)C1 [P-0354, (R)-1-(5-chloro-6-oxo-1,6-dihydropyridazin-4-yl)pyrrolidin-3-yl ((R)-1-(cyclohexylcarbamoyl)pyrrolidin-3-yl)carbamate]"
5.00 to 9.00,5.00 to 9.00,"CS(=O)(=O)N1CC[C@@H](NC(=O)O[C@@H]2CCN(c3cn[nH]c(=O)c3Cl)C2)C1 [P-0355, (R)-1-(5-chloro-6-oxo-1,6-dihydropyridazin-4-yl)pyrrolidin-3-yl ((R)-1-(methylsulfonyl)pyrrolidin-3-yl)carbamate]"
5.00 to 9.00,5.00 to 9.00,"CC(C)(O)[C@H]1CC[C@H](NC(=O)O[C@@H]2CCN(c3cn[nH]c(=O)c3Cl)C2)CC1 [P-0356, (R)-1-(5-chloro-6-oxo-1,6-dihydropyridazin-4-yl)pyrrolidin-3-yl ((1r,4R)-4-(2-hydroxypropan-2-yl)cyclohexyl)carbamate]"
5.00 to 9.00,5.00 to 9.00,"CC1(NC(=O)c2ccccc2)CCC(NC(=O)O[C@@H]2CCN(c3cn[nH]c(=O)c3Cl)C2)CC1 (stereo partly drawn) [P-0357, (R)-1-(5-chloro-6-oxo-1,6-dihydropyridazin-4-yl)pyrrolidin-3-yl (4-benzamido-4-methylcyclohexyl)carbamate]"
5.00 to 9.00,5.00 to 9.00,"CC1(NS(C)(=O)=O)CCC(NC(=O)O[C@@H]2CCN(c3cn[nH]c(=O)c3Cl)C2)CC1 (stereo partly drawn) [P-0358, (R)-1-(5-chloro-6-oxo-1,6-dihydropyridazin-4-yl)pyrrolidin-3-yl (4-methyl-4-(methylsulfonamido)cyclohexyl)carbamate]"
5.00 to 9.00,5.00 to 9.00,"O=C(N[C@@H]1CCN(C(=O)c2ccccc2)C1)O[C@@H]1CCN(c2cn[nH]c(=O)c2Cl)C1 [P-0359, (R)-1-(5-chloro-6-oxo-1,6-dihydropyridazin-4-yl)pyrrolidin-3-yl ((R)-1-benzoylpyrrolidin-3-yl)carbamate]"
5.00 to 9.00,5.00 to 9.00,"O=C(NC1(C(F)(F)F)CCCC1)O[C@@H]1CCN(c2cn[nH]c(=O)c2Cl)C1 [P-0360, (R)-1-(5-chloro-6-oxo-1,6-dihydropyridazin-4-yl)pyrrolidin-3-yl (1-(trifluoromethyl)cyclopentyl) carbamate]"
